Assay results published in the COVID Moonshot data (paper PMC7615835).
pIC50: −log10 of the molar value.

target: SARS-CoV-2 Main Protease (SARS-CoV-2) (UniProt P0DTD1)

SMILES	pIC50
O=C(Cc1cc(Cl)cc(Nc2ccc3nccnc3c2Br)c1)Nc1cncc2ccccc12	5.71
O=C(O)c1ccc(CNCc2c[nH]nc2-c2cccs2)cc1	< 4.00
O=C(Nc1cncc2ccccc12)C1CCN(Cc2ccccc2)c2ccc(Cl)cc21 (stereo not drawn)	5.97
O=C(NCCc1cccc(F)c1)C(c1cccnc1)N(C(=O)c1cocn1)c1ccc(OC2CCOC2)cc1 (stereo not drawn)	5.20
Cc1ccncc1NC(=O)N(CCC1CCCCC1)c1cc(Cl)cc(OC(C)C)c1	4.61
CCC(C(=O)O)N1CCCC(NC(=O)c2ccc3ccccc3c2)C1 (stereo not drawn)	< 4.00
CC(C)(C)c1ccc(N(C(=O)c2c[nH]c(=O)[nH]2)C(C(=O)NCCc2cccc(F)c2)c2cccnc2)cc1 (stereo not drawn)	4.80
CC(C)(C)OC(=O)NCCCNC(=O)C(c1cccnc1)N(C(=O)c1cocn1)c1ccc(C(C)(C)C)cc1 (stereo not drawn)	5.47
CC(C)Cn1cc(NC(=O)NCc2ccco2)c2ccccc2c1=O	4.53
O=C(NCCc1cccc(F)c1)C(c1cccnc1)N(C(=O)c1cnc[nH]1)c1cccc(C2COC2)c1 (stereo not drawn)	< 4.00
COc1ccc(Cl)c(Nc2cc(Cl)cc(CC(=O)Nc3cncc4ccccc34)c2)c1	5.77
CCc1ccc([N+](=O)[O-])cc1Nc1cc(Cl)cc(CC(=O)Nc2cncc3ccccc23)c1	5.77
O=C(Cc1cccc(Cl)c1)NC1CS(=O)(=O)Cc2ccccc21 (stereo not drawn)	< 4.00
CC(C)(C)c1ccc(N(C(=O)c2cncs2)C(C(=O)NCCc2cccc(F)c2)c2cccnc2)cc1 (stereo not drawn)	4.62
O=C(Cc1ccc(C(F)(F)F)cc1)Nc1cncc2ccccc12	4.61
Cn1c(=O)[nH]c(=O)c2ccc(C(=O)N(c3ccc(C(C)(C)C)cc3)C(C(=O)NCCc3cccc(F)c3)c3cccnc3)nc21 (stereo not drawn)	< 4.00
Cc1ccc(N(C(=O)c2cocn2)C(C(=O)NCCc2cccc(F)c2)c2cccnc2)cc1 (stereo not drawn)	4.30
Cc1cccn2ncc(NC(=O)C3CNC(=O)c4ccc(Cl)cc43)c12 (stereo not drawn)	5.62
CCCOc1ccc(Nc2cc(Cl)cc(CC(=O)Nc3cncc4ccccc34)c2)cc1	5.53

SMILES	pIC50
O=C(Cc1cc(Cl)cc(CC2CC(=O)N2)c1)Nc1cncc2ccccc12 (stereo not drawn)	5.34
O=C(Cc1cc(Cl)cc(OC(F)(F)F)c1)Nc1cncc2ccccc12	5.81
O=C(Cc1cc(Cl)cc(Nc2ccc(-c3ccccn3)cc2)c1)Nc1cncc2ccccc12	5.78
O=C(Nc1ccccc1)[C@H]1CN(C(=O)CCl)CCN1S(=O)(=O)c1ccsc1 (stereo in doubt)	6.41
O=C(Cn1ccc(=O)[nH]c1=O)N1CCN(c2ccccc2O)CC1	< 4.00
O=C(NCCc1cccc(F)c1)C(c1cccnc1)N(C(=O)c1cnc[nH]1)C1CCN(c2ccccc2)C1 (stereo not drawn)	< 4.00
O=C(CN1CC(C(=O)Nc2cncc3cc(F)ccc23)c2cc(Cl)ccc2C1=O)NC1CC1 (stereo not drawn)	6.25
CC(C)Sc1ccccc1Nc1cc(Cl)cc(CC(=O)Nc2cncc3ccccc23)c1	5.70
Cc1ccn2cnnc2c1NC(=O)C1CCOc2ccc(Cl)cc21 (stereo not drawn)	< 4.00
COc1cc(Nc2cc(Cl)cc(CC(=O)Nc3cncc4ccccc34)c2)nc(OC)n1	5.66
O=C(Nc1cncc2ccccc12)C(NC[C@@H]1CC[C@H](C(=O)N2CCCC2)O1)c1cccc(Cl)c1 (stereo in doubt)	5.56
COc1ccc(CNCC2(C(=O)Nc3cncc4ccccc34)CCOc3ccc(Cl)cc32)cc1OCC(N)=O (stereo not drawn)	4.94
CC(C)(C)c1cc(Nc2cc(Cl)cc(CC(=O)Nc3cncc4ccccc34)c2)n(-c2ccccc2)n1	5.69
Cc1nccn1Cc1ccc2c(NC(=O)C3CCOc4ccc(Cl)cc43)cncc2c1 (stereo not drawn)	5.27
CC(C)(C(N)=O)c1ccc(N(Cc2ccsc2)C(=O)Cn2nnc3ccccc32)cc1	5.50
Cn1cncc1C(=O)N(c1ccc(C(C)(C)C)cc1)C(C(=O)NCCc1cccc(F)c1)c1cccnc1 (stereo not drawn)	< 4.00
O=C(Cc1cc(Cl)cc(NCc2ccc(Br)cc2F)c1)Nc1cncc2ccccc12	5.46
CN(Cc1cccc([N+](=O)[O-])c1)c1cc(Cl)cc(CC(=O)Nc2cncc3ccccc23)c1	5.82
O=C(Cn1nnc2ccccc21)N(Cc1cccc(Cl)c1)c1ccc(N2CCOCC2)cc1	5.43
